The record followed here is patent publication US9499550B2 (BRISTOL-MYERS SQUIBB COMPANY, priority 2012, dated 2016).

In experiment [1] the test system is HCV genotype 1b (Con1) replicon in HUH-7 cells. As to the kind of experiment: HCV replicon luciferase reporter assay, genotype 1b. Type of experiment: cell-based. To be noted: Hepatitis C virus, Huh-7, 72 h, HCV genotype 1b replicon luciferase assay, 3 days incubation, range class, read-out: LE_1b (EC50, range). The method, boiled down: (§1)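 Replicon inhibition for both genotypes was measured as Renilla luciferase signal (EnduRen, 7.5 μM final, 2 h) after 3-day, 37° C exposure of replicon-bearing HUH-7 cells in 4% FCS DMEM, 0.5% DMSO. The 1b construct carries S1179I; the 1a H77 construct carries P1496L and S2204I. Twenty-point, 3-fold dilutions were fitted four-parametrically for EC50, and CC50 was taken from multiplexed Cell Titer-Blue.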
Background: In antiviral work, replicon cells carry a viral genome segment that copies itself.

For experiment [2], the system named is HCV genotype 1a (H77 strain) replicon in HUH-7 cells. As to the kind of experiment: HCV replicon luciferase reporter assay, genotype 1a. Type of experiment: cell-based. The conditions noted are these: Hepatitis C virus, Huh-7, 72 h, HCV genotype 1a replicon luciferase assay, 3 days incubation, range class, read-out: LE_1a (EC50, range). The method, boiled down: as §1

The structures appear in SMILES notation.

A word on the EC50: it is the concentration needed to bring the measured effect to its halfway point. Regarding `C[C@@H]1CC/C=C\[C@@H]2C[C@@]2(C(=O)NS(=O)(=O)C2CC2)NC(=O)[C@@H]2C[C@@H](Oc3nc(OCC(F)F)cc4c(Cl)cccc34)CN2C(=O)[C@@H](NC(=O)OC(C)(C)C)[C@H](C)C1` [Compound 1076, tert-butyl ((2R,6S,7R,9R,13aS,14aR,16aS,Z)-2-((5-chloro-3-(2,2-difluoroethoxyl)isoquinolin-1-yl)oxy)-14a-((cyclopropylsulfonyl)carbamoyl)-7,9-dimethyl-5,16-dioxo-1,2,3,5,6,7,8,9,10,11,13a,14,14a,15,16,16a-hexadecahydrocyclopropa[e]pyrrolo[1,2-a][1,4]diazacyclopentadecin-6-yl)carbamate], the EC50 in experiment [1] and in experiment [2] was less than 5.46 nM each time.

As for `CCCOc1cc2c(Cl)cccc2c(O[C@@H]2C[C@H]3C(=O)N[C@]4(C(=O)NS(=O)(=O)C5(C)CC5)C[C@H]4/C=C\CC[C@H](C)C[C@@H](C)[C@H](NC(=O)OC(C)(C)C(F)(F)F)C(=O)N3C2)n1` [Compound 1077, 1,1,1-trifluoro-2-methylpropan-2-yl((2R,6S,7R,9S,13aS,14aR,16aS,Z)-2-((5-chloro-3-propoxyisoquinolin-1-yl)oxy)-7,9-dimethyl-14a-(((1-methylcyclopropyl)sulfonyl)carbamoyl)-5,16-dioxo-1,2,3,5,6,7,8,9,10,11,13a,14,14a,15,16,16a-hexadecahydrocyclopropa[e]pyrrolo[1,2-a][1,4]diazacyclopentadecin-6-yl)carbamate], the EC50 was less than 5.46 nM in experiment [1] and 4.82 to 103 nM in experiment [2].

With `CCCOc1cc2c(Cl)cccc2c(O[C@@H]2C[C@H]3C(=O)N[C@]4(C(=O)NS(=O)(=O)C5(C)CC5)C[C@H]4/C=C\CC[C@@H](C)C[C@@H](C)[C@H](NC(=O)OC(C)(C)C(F)(F)F)C(=O)N3C2)n1` [Compound 1078, 1,1,1-trifluoro-2-methylpropan-2-yl((2R,6S,7R,9R,13aS,14aR,16aS,Z)-2-((5-chloro-3-propoxyisoquinolin-1-yl)oxy)-7,9-dimethyl-14a-(((1-methylcyclopropyl)sulfonyl)carbamoyl)-5,16-dioxo-1,2,3,5,6,7,8,9,10,11,13a,14,14a,15,16,16a-hexadecahydrocyclopropa[e]pyrrolo[1,2-a][1,4]diazacyclopentadecin-6-yl)carbamate], the EC50 in experiment [1] and in experiment [2] was less than 5.46 nM throughout.

As to `CCCOc1cc2c(Cl)cccc2c(O[C@@H]2C[C@H]3C(=O)N[C@]4(C(=O)NS(=O)(=O)C5(C)CC5)C[C@H]4/C=C\CC[C@H](C)C[C@@H](C)[C@H](NC(=O)O[C@H](C)C(F)(F)F)C(=O)N3C2)n1` [Compound 1079, (R)-1,1,1-trifluoropropan-2-yl ((2R,6S,7R,9S,13aS,14aR,16aS,Z)-2-((5-chloro-3-propoxyisoquinolin-1-yl)oxy)-7,9-dimethyl-14a-(((1-methylcyclopropyl)sulfonyl)carbamoyl)-5,16-dioxo-1,2,3,5,6,7,8,9,10,11,13a,14,14a,15,16,16a-hexadecahydrocyclopropa[e]pyrrolo[1,2-a][1,4]diazacyclopentadecin-6-yl)carbamate], the EC50 was less than 5.46 nM in experiment [1] and 4.82 to 103 nM in experiment [2].

In the case of `CCCOc1cc2c(Cl)cccc2c(O[C@@H]2C[C@H]3C(=O)N[C@]4(C(=O)NS(=O)(=O)C5(C)CC5)C[C@H]4/C=C\CC[C@@H](C)C[C@@H](C)[C@H](NC(=O)O[C@H](C)C(F)(F)F)C(=O)N3C2)n1` [Compound 1080, (R)-1,1,1-trifluoropropan-2-yl ((2R,6S,7R,9R,13aS,14aR,16aS,Z)-2-((5-chloro-3-propoxyisoquinolin-1-yl)oxy)-7,9-dimethyl-14a-(((1-methylcyclopropyl)sulfonyl)carbamoyl)-5,16-dioxo-1,2,3,5,6,7,8,9,10,11,13a,14,14a,15,16,16a-hexadecahydrocyclopropa[e]pyrrolo[1,2-a][1,4]diazacyclopentadecin-6-yl)carbamate], the 50% effective concentration (EC50) in experiment [1] and in experiment [2] was less than 5.46 nM throughout.

As for `CCCOc1cc2c(Cl)cccc2c(O[C@@H]2C[C@H]3C(=O)N[C@]4(C(=O)NS(=O)(=O)C5CC5)C[C@H]4/C=C\CC[C@H](C)C[C@@H](C)[C@H](NC(=O)O[C@H](C)C(F)(F)F)C(=O)N3C2)n1` [Compound 1081, (R)-1,1,1-trifluoropropan-2-yl ((2R,6S,7R,9S,13aS,14aR,16aS,Z)-2-((5-chloro-3-propoxyisoquinolin-1-yl)oxy)-14a-((cyclopropylsulfonyl)carbamoyl)-7,9-dimethyl-5,16-dioxo-1,2,3,5,6,7,8,9,10,11,13a,14,14a,15,16,16a-hexadecahydrocyclopropa[e]pyrrolo[1,2-a][1,4]diazacyclopentadecin-6-yl)carbamate], the concentration giving a half-maximal response (EC50) in experiment [1] is less than 5.46 nM; in experiment [2], 4.82 to 103 nM.

As for `CCCOc1cc2c(Cl)cccc2c(O[C@@H]2C[C@H]3C(=O)N[C@]4(C(=O)NS(=O)(=O)C5CC5)C[C@H]4/C=C\CC[C@@H](C)C[C@@H](C)[C@H](NC(=O)O[C@H](C)C(F)(F)F)C(=O)N3C2)n1` [Compound 1082, (R)-1,1,1-trifluoropropan-2-yl ((2R,6S,7R,9R,13aS,14aR,16aS,Z)-2-((5-chloro-3-propoxyisoquinolin-1-yl)oxy)-14a-((cyclopropylsulfonyl)carbamoyl)-7,9-dimethyl-5,16-dioxo-1,2,3,5,6,7,8,9,10,11,13a,14,14a,15,16,16a-hexadecahydrocyclopropa[e]pyrrolo[1,2-a][1,4]diazacyclopentadecin-6-yl)carbamate], the concentration giving a half-maximal response (EC50) in experiment [1] and in experiment [2] was less than 5.46 nM throughout.

Take `CCCOc1cc2c(Cl)cccc2c(O[C@@H]2C[C@H]3C(=O)N[C@]4(C(=O)NS(=O)(=O)C5CC5)C[C@H]4/C=C\CC[C@H](C)C[C@@H](C)[C@H](NC(=O)OC(C)(C)C(F)(F)F)C(=O)N3C2)n1` [Compound 1083, 1,1,1-trifluoro-2-methylpropan-2-yl((2R,6S,7R,9S,13aS,14aR,16aS,Z)-2-((5-chloro-3-propoxyisoquinolin-1-yl)oxy)-14a-((cyclopropylsulfonyl)carbamoyl)-7,9-dimethyl-5,16-dioxo-1,2,3,5,6,7,8,9,10,11,13a,14,14a,15,16,16a-hexadecahydrocyclopropa[e]pyrrolo[1,2-a][1,4]diazacyclopentadecin-6-yl)carbamate]: the EC50 in experiment [1] is less than 5.46 nM; in experiment [2], 4.82 to 103 nM.

Take `CCCOc1cc2c(Cl)cccc2c(O[C@@H]2C[C@H]3C(=O)N[C@]4(C(=O)NS(=O)(=O)C5CC5)C[C@H]4/C=C\CC[C@@H](C)C[C@@H](C)[C@H](NC(=O)OC(C)(C)C(F)(F)F)C(=O)N3C2)n1` [Compound 1084, 1,1,1-trifluoro-2-methylpropan-2-yl((2R,6S,7R,9R,13aS,14aR,16aS,Z)-2-((5-chloro-3-propoxyisoquinolin-1-yl)oxy)-14a-((cyclopropylsulfonyl)carbamoyl)-7,9-dimethyl-5,16-dioxo-1,2,3,5,6,7,8,9,10,11,13a,14,14a,15,16,16a-hexadecahydrocyclopropa[e]pyrrolo[1,2-a][1,4]diazacyclopentadecin-6-yl)carbamate]: the EC50 in experiment [1] and in experiment [2] was less than 5.46 nM in each case.

Turning to `CCCOc1cc2c(Cl)cccc2c(O[C@@H]2C[C@H]3C(=O)N[C@]4(C(=O)NS(=O)(=O)C5CC5)C[C@H]4/C=C\CC[C@H](C)C[C@@H](C)[C@H](NC(=O)OC4C[C@@H]5C[C@H]5C4)C(=O)N3C2)n1` [Compound 1085, (1S,5S)-bicyclo[3.1.0]hexan-3-yl((2R,6S,7R,9S,13aS,14aR,16aS,Z)-2-((5-chloro-3-propoxyisoquinolin-1-yl)oxy)-14a-((cyclopropylsulfonyl)carbamoyl)-7,9-dimethyl-5,16-dioxo-1,2,3,5,6,7,8,9,10,11,13a,14,14a,15,16,16a-hexadecahydrocyclopropa[e]pyrrolo[1,2-a][1,4]diazacyclopentadecin-6-yl)carbamate], the EC50 in experiment [1] and in experiment [2] was less than 5.46 nM in each case.

On to `CCCOc1cc2c(Cl)cccc2c(O[C@@H]2C[C@H]3C(=O)N[C@]4(C(=O)NS(=O)(=O)C5CC5)C[C@H]4/C=C\CC[C@@H](C)C[C@@H](C)[C@H](NC(=O)OC4C[C@@H]5C[C@H]5C4)C(=O)N3C2)n1` [Compound 1086, (1S,5S)-bicyclo[3.1.0]hexan-3-yl((2R,6S,7R,9R,13aS,14aR,16aS,Z)-2-((5-chloro-3-propoxyisoquinolin-1-yl)oxy)-14a-((cyclopropylsulfonyl)carbamoyl)-7,9-dimethyl-5,16-dioxo-1,2,3,5,6,7,8,9,10,11,13a,14,14a,15,16,16a-hexadecahydrocyclopropa[e]pyrrolo[1,2-a][1,4]diazacyclopentadecin-6-yl)carbamate], for which the concentration for a half-maximal effect (EC50) in experiment [1] and in experiment [2] was less than 5.46 nM each time.

As to `CCCOc1cc2c(Cl)cccc2c(O[C@@H]2C[C@H]3C(=O)N[C@]4(C(=O)NS(=O)(=O)C5(C)CC5)C[C@H]4/C=C\CC[C@H](C)C[C@@H](C)[C@H](NC(=O)OC4C[C@@H]5C[C@H]5C4)C(=O)N3C2)n1` [Compound 1087, (1S,5S)-bicyclo[3.1.0]hexan-3-yl((2R,6S,7R,9S,13aS,14aR,16aS,Z)-2-((5-chloro-3-propoxyisoquinolin-1-yl)oxy)-7,9-dimethyl-14a-(((1-methylcyclopropyl)sulfonyl)carbamoyl)-5,16-dioxo-1,2,3,5,6,7,8,9,10,11,13a,14,14a,15,16,16a-hexadecahydrocyclopropa[e]pyrrolo[1,2-a][1,4]diazacyclopentadecin-6-yl)carbamate], the results for the concentration giving a half-maximal response (EC50) in experiment [1] and in experiment [2] were less than 5.46 nM and 4.82 to 103 nM, respectively.
